Measured values reported in US20210207153A1, “SYSTEMS AND METHODS FOR EDITING A PLANT GENOME” (PIONEER HI-BRED INTERNATIONAL, INC., priority 2018, published 2021).
Values joined by “and” are separate entries in the source; they are usually repeats but may differ in a detail not shown here. Identical values can stand only once. Counter-ions that a name gives are not always drawn. Like-named read-outs stand apart in the source and are kept apart here.

Tests used:
[1] = test system: resistant embryos; assay: ABA application and embryo partial desiccation on embryo germination frequency; format: cell-based, canola
Experimental: To further increase embryo germination frequency, abscisic acid (ABA) at 25 μM was added in microspore culture medium NLN-10S with 0.1 -0.2 mM glyphosate 14 days after bombardment. The resistant embryos were partially desiccated in a Petri dish for one week at 25° C. The Petri dish contained a piece of Bounty paper towel with water for maintaining moisture.

[2] = test system: microspores
Experimental: • DNA constructs with promoter AT-UBIQ10 and glyphosate resistant gene GAT4621 were used in the following experiments. • 1. […] In developing canola transformation procedure, microspores were cultured for two days or three days in IM-17M and then cultured in NLN-10S for one day or not before bombardment.
• 2. Effect of CaC12 in IM-17M before bombardment and NLN-13S with 5 μM trifluralin on transformation efficiency • 15 mM calcium chloride was supplemented in IM-17M in microspore culture before bombardment.
It was further studied that calcium chloride was supplemented in NLN-13S with 5 μM trifluralin after bombardment on transformation efficiency.

[3] = test system: embryos; assay: PCIB in embryo germination medium on germination frequency; format: cell-based, canola
Experimental: • 4. Increase embryo germination frequency • One of technical challenges in canola transformation was that embryo germination frequency was only around 20%. Antiauxin 2-(p-Chlorophenoxy)-2-methylpropionic acid (PCIB) was included in embryo germination medium BGM for inhibiting callusing. Embryo germination frequency was doubled when 0.0625-1 mg/l PCIB was added in BGM with 0.1 mM glyphosate

[4] = test system: microspore-derived hypocotyls; assay: Sucrose in osmotic medium: transient GUS expression; format: cell-based, Brassica; conditions: for # with GUS: 24 hypocotyls
Experimental: Experiments 3 to 7 describe work done using microspore-derived hypocotyls. Microspores were isolated as is known to those skilled in the art and cultured in NLN medium for 21 to 28 days (Swanson et al., 1987). Hypocotyls were excised from the embryos produced from the microspores when the embryos were approximately 3-5 mm in size. Microspores of cultivar 46A65 were cultured in NLN medium for approximately 21 days. On the 21st day, the NLN medium was changed and diluted (1:20) with fresh NLN medium and the embryos were cultured for 5 more days. The hypocotyls were excised from the embryos and preconditioned overnight on MMW+BAP (4 mg/l)+NAA (0.25 mg/l). The hypocotyls were transferred to osmotic medium (for example, 17% sucrose+1% agar+1 g/l MES, pH 6.0) for 4 hours and then bombarded. The DNA construct used in bombardments was PHP 18644. After bombardment, the hypocotyls were cultured on the osmotic medium for approximately between 4 and 20 hours (for example, overnight). The bombarded hypocotyls were then cultured on MMW+BAP (4 mg/l)+kanamycin (25-50 mg/l) for bud induction. Regenerated buds were cultured on MMW+kanamycin (50-100 mg/l) or MMW+BAP (0.2 mg/l)+kanamycin (50-100 mg/l) for plant regeneration. The following experiments were done to test the effect of sucrose concentration, amount of gold particle used and the effect of rupture disk on transformation frequency.
The objective was to find the appropriate concentration of sucrose in the osmotic medium (sucrose+1% agar+1 g/l MES, pH 6.0) in order to produce the highest transformation efficiency.
GUS analysis is known to those skilled in the art. The protocol can be found in numerous references, for example Wu H, McCormac A C, Elliott M C, Chen D F (1998) Agrobacterium-mediated s table transformation of cell suspension cultures of barley (Hordeum vulgare). Plant Cell Tissue and Organ Culture 54:161-171.

[5] = test system: pre-incubated microspores; assay: Sucrose in osmotic medium: resistant embryo production; format: cell-based, Brassica; conditions: Total of 4 reps
Experimental: The purpose of this experiment was to find the optimal concentration of sucrose in the osmotic medium. Microspores were cultured for 4-7 days using 17S/10S protocol. […] The rupture disk was 900 psi. […] The diluted cultures were incubated in the light for 2-3 weeks.

[6] = test system: non-transgenic microspores; assay: G418 selection kill curve: embryo growth and survival in liquid medium; format: cell-based, Brassica; conditions: for # Green embryos or with green island: liquid medium
Excerpt: (§1) The objective was to determine the concentration of G418 that kills non-transgenic microspores. Prior to this experiment, selection was done on solid medium, not in liquid medium. Using liquid selection for Brassica transgenic cells is novel. Selection in liquid medium is advantageous for at least the following reasons: (a) it allows selection at an early stage, thereby eliminating the need for subsequent transfers of explants, (b) it allows for a cleaner selection because the explants are generally smaller when they are in liquid medium and the liquid allows all the surfaces of the explant to be exposed to the selection agent, (c) it may reduce the frequency of chimeras, and (d) a lower amount of the selection agent is needed therefore reducing the toxicity to the researcher and the environment. The effect of various concentrations of kanamycin on embryo growth in liquid medium was tested. […] Accordingly, it was difficult to discriminate transgenic tissue or embryos from non-transgenic.

[7] = test system: pre-incubated microspores; assay: Glyphosate resistant embryo selection after bombarding pre-incubated microspores; format: cell-based, Brassica
Experimental: Experiments 8 to 17 describe the work done using pre-incubated microspores. The microspores were cultured in NLN-17S/10S for 2-10 days. Optimally, the microspores are cultured for 5-7 days. Embryos could not be detected with the naked eye. The embryogenic microspores were collected so that they remain viable and embryogenic with a Nitex™ sieve (15-36 um in pore size) or Percoll® (35-45%) gradient centrifugation. Pre-incubated microspores were used as bombarded materials. Any Brassica line that is capable of regenerating by microspore culture can be used. The microspores were cultured for 1-3 days in NLN-17S at 31.5° C., and then in NLN-10S for 4-5 days at 25° C. The constructs used in the bombardments were PHP18644, PHP21965, PHP22024, PHP22021, and PHP23560 (see Table 9). The constructs can be the full plasmid or the expression cassette only. For example, PHP22024 can be either the expression cassette or the full plasmid. The pre-incubated microspores were filtrated with sieves of pore size of 15 μm to 36 μm. The collected microspores were used for bombardment. The microspores were loaded on a sieve 15 μm or 20 μm on two layers of filter-paper and dried for less than one minute. […] Resistant embryos were recorded after two to three weeks of culture. […]

[8] = test system: non-bombarded and bombarded embryos; assay: Effect of kanamycin on embryo growth in liquid medium; format: cell-based, Brassica
Excerpt: as §1

[9] = ABA 25 μM plus partial desiccation
[10] = 15 mM CaCl2 in IM-17M before bombardment, 24 shots

SMILES: CC1=CC(=O)CC(C)(C)[C@@]1(O)/C=C/C(C)=C\C(=O)O [ABA, abscisic acid]
- Total shoots ([1]; ABA 25 μM in NLN-10S 14 days after bombardment plus partial desiccation one week, 479 embryos): 338
- Germination [1, 9]: 76.6%
- embryo germination frequency, change [1, 9]: significantly increased

SMILES: [Ca+2].[Cl-].[Cl-] [CaCl2, calcium chloride]
- # embryos [2, 10]: 574
- Embryos/shot [2, 10]: 23.9
- Embryos/shot ([2]; CaCl2 0 mM in IM-17M, 10 mM in NLN-13S + trifluralin): 11
- # embryos ([2]; CaCl2 0 mM in IM-17M, 10 mM in NLN-13S + trifluralin, 15 shots): 169
- Embryos/shot ([2]; CaCl2 0 mM in IM-17M, 20 mM in NLN-13S + trifluralin): 16
- # embryos ([2]; CaCl2 0 mM in IM-17M, 20 mM in NLN-13S + trifluralin, 19 shots): 300
- Embryos/shot ([2]; CaCl2 15 mM in IM-17M, 0 mM in NLN-13S + trifluralin): 6
- # embryos ([2]; CaCl2 15 mM in IM-17M, 0 mM in NLN-13S + trifluralin, 22 shots): 139

SMILES: CC(C)(Oc1ccc(Cl)cc1)C(=O)O [PCIB, 2-(p-Chlorophenoxy)-2-methylpropionic acid]
- embryo germination frequency, change ([3]; 0.0625-1 mg/l PCIB in BGM with 0.1 mM glyphosate): doubled
- Germination frequency ([3]; PCIB 0.0625 mg/l): 44%
- # plantlets ([3]; PCIB 0.0625 mg/l in BGM with 0.1 mM glyphosate, 63 embryos): 28
- Germination frequency ([3]; PCIB 0.125 mg/l): 43%
- # plantlets ([3]; PCIB 0.125 mg/l, 72 embryos): 31
- Germination frequency ([3]; PCIB 0.25 mg/l): 50%
- # plantlets ([3]; PCIB 0.25 mg/l, 72 embryos): 36
- Germination frequency ([3]; PCIB 0.5 mg/l): 44%
- # plantlets ([3]; PCIB 0.5 mg/l, 63 embryos): 28
- Germination frequency ([3]; PCIB 1 mg/l): 44%
- # plantlets ([3]; PCIB 1 mg/l, 81 embryos): 36

SMILES: OC[C@H]1O[C@@](CO)(O[C@H]2O[C@H](CO)[C@@H](O)[C@H](O)[C@H]2O)[C@@H](O)[C@@H]1O [Sucrose, sucrose]
- # spots/hypocotyls ([4]; 15% sucrose): 9.8
- # total spots ([4]; 15% sucrose): 236
- # with GUS ([4]; 15% sucrose): 23
- # spots/hypocotyls ([4]; 17% sucrose): 10.1
- # total spots ([4]; 17% sucrose): 242
- # with GUS ([4]; 17% sucrose): 23
- # spots/hypocotyls ([4]; 19% sucrose): 19.8
- # total spots ([4]; 19% sucrose): 475
- # with GUS ([4]; 19% sucrose): 23
- # spots/hypocotyls ([4]; 21% sucrose): 16.7
- # total spots ([4]; 21% sucrose): 400
- # with GUS ([4]; 21% sucrose): 24
- Resistant embryos/plate ([5]; 17% sucrose): 2.5
- Resistant embryos/plate ([5]; 19% sucrose): 2.1

SMILES: CN[C@@H]1[C@@H](O)[C@@H](O[C@@H]2[C@@H](O)[C@H](O[C@H]3O[C@H]([C@@H](C)O)[C@@H](O)[C@H](O)[C@H]3N)[C@@H](N)C[C@H]2N)OC[C@]1(C)O [Variant G418, G418 disulfate salt]
- # Green embryos or with green island ([6]; G418 1.25 mg/l, disulfate salt): 30 and 28
- # Green embryos or with green island ([6]; G418 2.5 mg/l, disulfate salt): 14 and 11
- # Green embryos or with green island ([6]; G418 5 mg/l): 0
- # Green embryos or with green island ([6]; G418 10 mg/l): 0
- concentration sufficient to differentiate transformed cells from untransformed cells ([6]; NLN with 6.5% sucrose medium): 5 to 10 mg/L

SMILES: O=C(O)CNCP(=O)(O)O [glyphosate]
- identification of resistant embryos ([7]; glyphosate 0.1 mM or 0.2 mM): allowed identification of resistant embryos
- selection efficiency ([7]; glyphosate 0.2 mM versus 0.1 mM): fewer false positive results

SMILES: NC[C@H]1O[C@H](O[C@H]2[C@H](O)[C@@H](O[C@H]3O[C@H](CO)[C@@H](O)[C@H](N)[C@H]3O)[C@H](N)C[C@@H]2N)[C@H](O)[C@@H](O)[C@@H]1O [kanamycin]
- concentration sufficient to bleach non-bombarded embryos and inhibit non-bombarded embryo growth [8]: 10 mg/L
